Measured values from patent publication US10233422B2, “Pluripotent cell lines and methods of use thereof” (Parkinson's Institute, priority 2008, dated 2019).

Tested on: paraquat-treated mouse brain
Test: Ex vivo screening of anti-aggregation compounds: Thioflavin S deposits in paraquat-treated mouse brain
Details: 250 uM, FIG. 33D-E

For `Oc1ccccc1O` [Catechol, catechol], the “Thioflavin S deposits (which label aggregate protein)” value was “Diminished Thioflavin S deposits”.
